Legend:
Format in all cases: in vivo
[1] = system: chickweed (Stellaria media); assay: Test C preemergence, chickweed; details: 21 days, scale 0 to 100
Excerpt: (§1) Seeds of plant species selected from annual bluegrass (Poa annua), blackgrass (Alopecurus myosuroides), canarygrass (Phalaris minor), gallium, (catchweed bedstraw, Galium aparine), chickweed (Stellaria media), downy bromegrass (Bromus tectorum), field poppy (Papaver rhoeas), field violet (Viola arvensis), green foxtail (Setaria viridis), deadnettle (henbit deadnettle, Lamium amplexicaule), Italian ryegrass (Lolium multiflorum), kochia (Kochia scoparia), lambsquarters (Chenopodium album), oilseed rape (Brassica napus), pigweed (Amaranthus retroflexus), Russian thistle (Salsola kali), spring barley (Hordeum vulgare), spring wheat (Triticum aestivum), wild buckwheat (Polygonum convolvulus), wild mustard (Sinapis arvensis), wild oat (Avena fatua), wild radish (Raphanus raphanistrum), windgrass (Apera spica-venti), winter barley (Hordeum vulgare), and winter wheat (Triticum aestivum) were planted and treated preemergence with test chemicals formulated in a non-phytotoxic solvent mixture which included a surfactant.
(§2) Treated plants and controls were maintained in a controlled growth environment for 21 days after which time all species were compared to controls and visually evaluated. Plant response ratings, summarized in Table C, are based on a scale of 0 to 100 where 0 is no effect and 100 is complete control. A dash (-) response means no test result.

[2] = system: morningglory (Ipomoea spp.); assay: Test A postemergence, morningglory; details: 0 to 100 scale (0 no effect, 100 complete control)
In short: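 Seeds planted in loam–sand blend; compounds in non-phytotoxic solvent with surfactant applied as directed preemergence soil spray, or postemergence to plants 2–10 cm tall at one- to two-leaf stage. After ~10 days in greenhouse, injury rated visually versus untreated controls on 0–100 scale (100 = complete control).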

[3] = system: pigweed (Amaranthus retroflexus); assay: Test B preemergence, pigweed; details: scale 0 to 100
Excerpt: (§3) Seeds of plant species selected from blackgrass (Alopecurus myosuroides), downy bromegrass (Bromus tectorum), green foxtail (Setaria viridis), Italian ryegrass (Lolium multiflorum), wheat (Triticum aestivum), wild oat (Avena fatua), catchweed bedstraw (Galium aparine), bermudagrass (Cynodon dactylon), Surinam grass (Brachiaria decumbens), cocklebur (Xanthium strumarium), corn (Zea mays), large crabgrass (Digitaria sanguinalis), woolly cupgrass (Eriochloa villosa), giant foxtail (Setaria faberii), goosegrass (Eleusine indica), johnsongrass (Sorghum halepense), kochia (Kochia scoparia), lambsquarters (Chenopodium album), morningglory (Ipomoea coccinea), nightshade (eastern black nightshade, Solanum ptycanthum), yellow nutsedge (Cyperus esculentus), pigweed (Amaranthus retroflexus), ragweed (common ragweed, Ambrosia elatior), soybean (Glycine max), sunflower (common oilseed sunflower, Helianthus annuus), Russian thistle (Salsola kali), and velvetleaf (Abutilon theophrasti) were planted into a blend of loam soil and sand and treated preemergence with test compounds formulated in a non-phytotoxic solvent mixture which included a surfactant. Treated plants and controls were maintained in a greenhouse for 13 to 15 days, after which time all species were compared to controls and visually evaluated. Plant response ratings, summarized in Table B, are based on a scale of 0 to 100 where 0 is no effect and 100 is complete control. A dash (-) response means no test result.

[4] = system: johnsongrass (Sorghum halepense); assay: Test B preemergence, johnsongrass; details: scale 0 to 100
Excerpt: as §3

[5] = system: downy bromegrass (Bromus tectorum); assay: Test B preemergence, downy bromegrass; details: scale 0 to 100
Excerpt: as §3

[6] = system: pigweed (Amaranthus retroflexus); assay: Test C preemergence, pigweed; details: 21 days, scale 0 to 100
Excerpt: as §1, §2

[7] = system: field poppy (Papaver rhoeas); assay: Test C preemergence, field poppy; details: 21 days, scale 0 to 100
Excerpt: as §1, §2

[8] = system: Russian thistle (Salsola kali); assay: Test B preemergence, Russian thistle; details: scale 0 to 100
Excerpt: as §3

[9] = system: wild mustard (Sinapis arvensis); assay: Test C preemergence, wild mustard; details: 21 days, scale 0 to 100
Excerpt: as §1, §2

[10] = system: green foxtail (Setaria viridis); assay: Test C preemergence, green foxtail; details: 21 days, scale 0 to 100
Excerpt: as §1, §2

[11] = system: canarygrass (Phalaris minor); assay: Test C preemergence, canarygrass; details: 21 days, scale 0 to 100
Excerpt: as §1, §2

[12] = system: large crabgrass (Digitaria sanguinalis); assay: Test B preemergence, large crabgrass; details: scale 0 to 100
Excerpt: as §3

[13] = system: winter wheat (Triticum aestivum); assay: Test C preemergence, winter wheat; details: 21 days, scale 0 to 100
Excerpt: as §1, §2

[14] = system: sunflower (common oilseed sunflower, Helianthus annuus); assay: Test B preemergence, sunflower; details: Preemergence, scale 0 to 100
In short: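 After sowing in loam–sand, soil surfaces received the compound preemergence; greenhouse growth followed for 13–15 d. Control compared with untreated plants, scored 0–100.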

[15] = system: blackgrass (Alopecurus myosuroides); assay: Test C preemergence, blackgrass; details: 21 days, scale 0 to 100
Excerpt: as §1, §2

## CC1(C)CC(S(=O)(=O)Cc2c(C(F)(F)F)nc3n(c2=O)CCCC3)=NO1 [Compound 8, 3-[[(4,5-dihydro-5,5-dimethyl-3-isoxazolyl)sulfonyl]methyl]-6,7,8,9-tetrahydro-2-(trifluoromethyl)-4H-pyrido[1,2-α]pyrimidin-4-one]
[1]; 16 g ai/ha
  Plant response rating, Chickweed: 0
[1]; 31 g ai/ha
  Plant response rating, Chickweed: 0
[1]; 62 g ai/ha
  Plant response rating, Chickweed: 0
[1]; 125 g ai/ha
  Plant response rating, Chickweed: 40
[2]; 125 g ai/ha
  Plant response rating, Morningglory: 60
[2]; 500 g ai/ha
  Plant response rating, Morningglory: 90
[3]; 16 g ai/ha
  Plant response rating, Pigweed: 0
[3]; 31 g ai/ha
  Plant response rating, Pigweed: 20
[3]; 62 g ai/ha
  Plant response rating, Pigweed: 95
[3]; 125 g ai/ha
  Plant response rating, Pigweed: 100
[4]; 16 g ai/ha
  Plant response rating, Johnsongrass: 75
[4]; 31 g ai/ha
  Plant response rating, Johnsongrass: 90
[4]; 62 g ai/ha
  Plant response rating, Johnsongrass: 100
[4]; 125 g ai/ha
  Plant response rating, Johnsongrass: 100
[5]; 16 g ai/ha
  Plant response rating, Bromegrass, Downy: 0
[5]; 31 g ai/ha
  Plant response rating, Bromegrass, Downy: 0
[5]; 62 g ai/ha
  Plant response rating, Bromegrass, Downy: 20
[5]; 125 g ai/ha
  Plant response rating, Bromegrass, Downy: 40
[6]; 16 g ai/ha
  Plant response rating, Pigweed: 0
[6]; 31 g ai/ha
  Plant response rating, Pigweed: 0
[6]; 62 g ai/ha
  Plant response rating, Pigweed: 0
[6]; 125 g ai/ha
  Plant response rating, Pigweed: 0
[7]; 16 g ai/ha
  Plant response rating, Field Poppy: 0
[7]; 31 g ai/ha
  Plant response rating, Field Poppy: 0
[7]; 62 g ai/ha
  Plant response rating, Field Poppy: 50
[7]; 125 g ai/ha
  Plant response rating, Field Poppy: 75
[8]; 16 g ai/ha
  Plant response rating, Russian Thistle: 0
[8]; 31 g ai/ha
  Plant response rating, Russian Thistle: 0
[8]; 62 g ai/ha
  Plant response rating, Russian Thistle: 0
[8]; 125 g ai/ha
  Plant response rating, Russian Thistle: 0
[9]; 16 g ai/ha
  Plant response rating, Mustard, Wild: 0
[9]; 31 g ai/ha
  Plant response rating, Mustard, Wild: 0
[9]; 62 g ai/ha
  Plant response rating, Mustard, Wild: 30
[9]; 125 g ai/ha
  Plant response rating, Mustard, Wild: 100
[10]; 16 g ai/ha
  Plant response rating, Foxtail, Green: 0
[10]; 31 g ai/ha
  Plant response rating, Foxtail, Green: 0
[10]; 62 g ai/ha
  Plant response rating, Foxtail, Green: 15
[10]; 125 g ai/ha
  Plant response rating, Foxtail, Green: 60
[11]; 16 g ai/ha
  Plant response rating, Canarygrass: 0
[11]; 31 g ai/ha
  Plant response rating, Canarygrass: 0
[11]; 62 g ai/ha
  Plant response rating, Canarygrass: 0
[11]; 125 g ai/ha
  Plant response rating, Canarygrass: 20
[12]; 16 g ai/ha
  Plant response rating, Crabgrass, Large: 95
[12]; 31 g ai/ha
  Plant response rating, Crabgrass, Large: 95
[12]; 62 g ai/ha
  Plant response rating, Crabgrass, Large: 100
[12]; 125 g ai/ha
  Plant response rating, Crabgrass, Large: 100
[13]; 16 g ai/ha
  Plant response rating, Wheat, Winter: 0
[13]; 31 g ai/ha
  Plant response rating, Wheat, Winter: 0
[13]; 62 g ai/ha
  Plant response rating, Wheat, Winter: 0
[13]; 125 g ai/ha
  Plant response rating, Wheat, Winter: 0
[14]; 16 g ai/ha
  Plant response rating, Sunflower: 0
[14]; 31 g ai/ha
  Plant response rating, Sunflower: 15
[14]; 62 g ai/ha
  Plant response rating, Sunflower: 40
[14]; 125 g ai/ha
  Plant response rating, Sunflower: 45
[15]; 16 g ai/ha
  Plant response rating, Blackgrass: 0
[15]; 31 g ai/ha
  Plant response rating, Blackgrass: 0
[15]; 62 g ai/ha
  Plant response rating, Blackgrass: 20
[15]; 125 g ai/ha
  Plant response rating, Blackgrass: 35

Source: patent publication US20100099561A1, “HETEROBICYCLIC ALKYLTHIO-BRIDGED ISOXAZOLINES” (E.I. DU PONT DE NEMOURS AND COMPANY, priority 2008, published 2010)
